Results taken from patent US20220251079A1, “BENZO[B][1,8]NAPHTHYRIDINE ACETIC ACID DERIVATIVES AND METHODS OF USE” (STINGTHERA, INC., priority 2019, published 2022).

Experiments:
[1] = biological target: T1, human STING protein (140-379) (Homo sapiens, UniProt Q86WV6, H232R); assay: Radiometric filtration binding competition assay (WT_FBA_HIS-SUMO-hSWAT); details: read-out: WT-hSWAT IC50
T1 construct: 6XHIS-SUMO-hSTING (140-379); made in house; host or cells: BL-21(DE3) E. coli, pET vector
Method: A radiometric filtration binding competition assay was performed to quantify the binding affinity of compounds of the present application for the human or mouse STING protein, or associated HAQ human isoform. The competition format filtration binding assay detects the ability of small molecule compounds from binding to and inhibiting the subsequent binding of a tritiated [H3] […] The resulting dose response was fit by non-linear regression to determine an IC50 value, from which a Ki value for each compound was extrapolated.
Briefly, the recombinant C-terminal ligand binding domain of the human STING protein (140-379) or mouse STING protein (139-328) [0.5 μM] was incubated in the presence of a compound of the present application (8 point, 2 fold dilution starting at 300 μM) for 30 min or under control conditions. […] The resulting complexes were then filtered, dried, and scintillation fluid was added and the remaining radio signal was measured to determine the degree of compound ligand inhibition. This assay format was optimized for both the WT and HAQ isoforms of the human protein and the mouse orthologue protein.
Parameters optimized: • a. Form of protein: 6×HIS-SUMO tag or untagged • b. Concentration of target protein: Minimum concentration that achieved >80 max signal • c. Assay DMSO concentration: 10%-0.1% • d. Assay Buffer: Base (Tris or phosphate), Salt concentration, +/−Tween (0.1-2%) • e. […] Probe Concentration: Minimum concentration that achieved max assay window • g. Assay Format: Scintillation Proximity Bead or Filtration Binding Plate • h. Assay Plate: 384 vs 96 well format • i. Assay incubation times for successive incubation steps
WT-hSWAT: WT_FBA_HIS-SUMO-hSWAT IC50 (μM) (“WT”=Wild-type); and WT-mSWAT: MOUSE_FBA_HIS-SUMO-mSWAT C50 (μM) which is the mouse isoform of STING protein.

[2] = biological target: T2, hSTING-R232 (Homo sapiens, UniProt Q86WV6, H232R); assay: STING Differential Scanning Fluorimetry (DSF) assay, human; format: binding; details: human STING R232-WT, 5 μM protein
T2 construct: recombinant mouse or human STING protein (aa140-379); 6xHis-SUMO elsewhere) (cleaved yes); made in house
Method: A STING DSF assay was performed to determine protein thermostability shift in response to small molecule ligand binding. A STING thermostability shift assay based on differential scanning fluorimetry was used to measure (1) the net shift in melting temperature (ΔTm)between the apo and ligand-bound states of the STING protein and (2) the concentration of the thermal denaturation transition (FC50) as a surrogate measure of binding affinity (Kd). Briefly, recombinant mouse or human STING protein (aa140-379) comprising the C-terminal binding domain (R232-WT) were purified by affinity chromatography and further processed to remove the purification tag, followed by gel filtration to achieve purity >95%. Protein in assay buffer was transferred to a 384 well plate and incubated with the hydrophobic fluorescent dye SYBR Orange. A temperature ramp was applied to the plate and the resulting dye fluorescence was plotted as a function of temperature. The first derivative of this function (dF/dT) was then used to extrapolate the melting temperature of the protein at various concentrations of compound and determine the thermal denaturation profile of a protein/compound complex.
2. 5 μM purified Target STING Protein
4. Buffer: 100 mM NaCl, 30 mM HEPES, pH 7.5
5. Thermal Ramp: 0.5° C./min
7. 11 point, 2 fold dilution, duplicate, 300 μM high concentrations

[3] = biological target: T3, STING protein (Homo sapiens, UniProt Q86WV6, H232R); assay: Cell based reporter assay of IRF activation (THP1-dual-KI R232, IRF luciferase); details: THP-1; read-out: THP1-dual-KI R232_IRF(Luciferase)_Activity Maximum measured (%)
T3 construct: host or cells: THP-1 dual reporter cells, TMEM173 modified from HAQ to R232 (THP1-dual-KI R232)
Excerpt: Cell reporter assays were developed to measure the ability of compounds of the application to activate the STING protein and activate both IRF/IFN and the NFkB signaling pathways in the myeloid derived cell line THP-1, which is commercially available from several suppliers. Briefly, THP-1 monocytes were transfected and selected for stable integration of 2 reporter constructs. Clones incorporating stably integrated vectors were further selected by antibiotic resistance to blastocidin and zeocin. The reporter constructs included: (1) firefly luciferase reporter gene under the control of an ISG54 promoter fused to five interferon (IFN)-stimulated response elements to measure IRF transcription factor binding activity and (2) secreted embryonic alkaline phosphatase reporter gene under transcription control of an IFN-beta minimal promoter fused to 5 copies of the NFkB consensus transcriptional response element and 3 copies of the c-Rel binding site.
The resulting THP-1 cell line was further modified to incorporate 3 amino acid point mutations (H71R A230G Q293R). This modification of the native TMEM173 gene in THP-1 cells (HAQ) was designed to produce a cell reporter that expressed the most common allelic variant in the human population (THP-1 R232, available from InvivoGen). Alternatively, the TMEM173 gene was knocked out to provide a congenic control to counter-screen for compound activation that was independent of the STING protein (THP-1 STING KO).
Once cell lines were established, reporter assay protocols were developed and optimized to screen small molecule compounds for agonist activity. Assay optimization for efficacy and Z′ value included titration of the following parameters:
1. No pre-activation with PMA
2. […]cells/well in 96 well plate format
7. Cell Titer Glo reagent (Promega) following supermatant removal
9. 8 point, 2 fold, duplicate starting at 150 μM PP28T

T1 sequence (Q86WV6 140-379 H232R): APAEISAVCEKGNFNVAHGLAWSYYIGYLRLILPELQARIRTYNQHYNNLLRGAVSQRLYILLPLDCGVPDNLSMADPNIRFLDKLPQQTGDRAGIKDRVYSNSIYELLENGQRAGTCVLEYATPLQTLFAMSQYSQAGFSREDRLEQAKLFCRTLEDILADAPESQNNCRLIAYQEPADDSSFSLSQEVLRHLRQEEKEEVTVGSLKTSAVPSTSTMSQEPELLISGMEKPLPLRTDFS
T2 sequence (Q86WV6 140-379 H232R): as above
T3 sequence (Q86WV6 whole entry H232R): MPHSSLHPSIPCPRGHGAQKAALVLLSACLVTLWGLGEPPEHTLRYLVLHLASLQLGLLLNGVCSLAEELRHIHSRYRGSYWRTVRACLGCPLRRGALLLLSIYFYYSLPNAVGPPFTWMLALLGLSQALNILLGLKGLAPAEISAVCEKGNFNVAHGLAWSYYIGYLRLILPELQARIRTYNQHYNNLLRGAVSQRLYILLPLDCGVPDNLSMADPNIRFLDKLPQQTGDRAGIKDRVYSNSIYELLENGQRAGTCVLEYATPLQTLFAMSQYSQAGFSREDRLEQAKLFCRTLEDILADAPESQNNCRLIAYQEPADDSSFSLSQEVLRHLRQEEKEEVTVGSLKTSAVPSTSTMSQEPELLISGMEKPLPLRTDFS

## CCOc1c(Cl)ccc2c(=O)c3ccc(C(C)(C)C#N)nc3n(CC(=O)O)c12 [Compound 25, sodium 2-(8-chloro-2-(2-cyanopropan-2-yl)-9-ethoxy-5-oxobenzo[b][1,8]naphthyridin-10(5H)-yl)acetate]
[1]
  IC50: 20 to 100 µM
[2]
  WT_DSF_hSWAT Tm Shift (° C.): D (“D” > 7° C.)
[3]
  Emax: > 50%

## CC(C)(C)c1ccc2c(=O)c3ccc(Cl)c(F)c3n(CC(=O)O)c2n1 [Compound 14]
[1]
  IC50: > 300 µM
[2]
  WT_DSF_hSWAT Tm Shift (° C.): B (“B” = 0-2° C.)
[3]
  Emax: > 50%

## COc1ccc2c(=O)c3ccc(Cl)c(N(C)C)c3n(CC(=O)O)c2n1 [Compound 21, 2-(8-chloro-9-(dimethylamino)-2-methoxy-5-oxobenzo[b][1,8]naphthyridin-10(5H)-yl) acetic acid]
[1]
  IC50: 20 to 100 µM
[2]
  WT_DSF_hSWAT Tm Shift (° C.): C (“C” = 2-7° C.)
[3]
  Emax: > 50%

## CN(C)c1c(Cl)ccc2c(=O)c3ccc(C(C)(C)C(N)=O)nc3n(CC(=O)O)c12 [Compound 20, 2-(2-(1-amino-2-methyl-1-oxopropan-2-yl)-8-chloro-9-(dimethylamino)-5-oxobenzo[b][1,8]naphthyridin-10(5H)-yl)acetic acid]
[1]
  IC50: 100 to 300 µM
[2]
  WT_DSF_hSWAT Tm Shift (° C.): C (“C” = 2-7° C.)
[3]
  Emax: > 50%

## CSc1c(Cl)ccc2c(=O)c3ccc(NC4CC(C#N)C4)nc3n(CC(=O)O)c12 (stereo not drawn) [Compound 56, sodium 2-(8-chloro-2-((3-cyanocyclobutyl)amino)-9-(methylthio)-5-oxobenzo[b][1,8]naphthyridin-10(5H)-yl)acetate]
[1]
  IC50: < 20 µM
[2]
  WT_DSF_hSWAT Tm Shift (° C.): D (“D” > 7° C.)
[3]
  Emax: > 50%

## CO[C@H]1C[C@@H](N(C)c2nc3c(cc2Cl)c(=O)c2ccc(Cl)c(SC)c2n3CC(=O)O)C1 [Compound 77, 2-(3,8-dichloro-2-(((1s,3s)-3-methoxycyclobutyl)(methyl)amino)-9-(methylthio)-5-oxobenzo[b][1,8]naphthyridin-10(5H)-yl)acetic acid]
[1]
  IC50: < 20 µM
[2]
  WT_DSF_hSWAT Tm Shift (° C.): D (“D” > 7° C.)
[3]
  Emax: > 50%

## CN(C)c1c(Cl)ccc2c(=O)c3ccc(NCC4CC(F)(F)C4)nc3n(CC(=O)O)c12 [Compound 53, Sodium 2-(8-chloro-2-(((3,3-difluorocyclobutyl)methyl)amino)-9-(dimethylamino)-5-oxobenzo[b][1,8]naphthyridin-10(5H)-yl)acetate]
[1]
  IC50: < 20 µM
[2]
  WT_DSF_hSWAT Tm Shift (° C.): D (“D” > 7° C.)
[3]
  Emax: > 50%

## CN(C)c1ccc2c(=O)c3ccc(Cl)c(-c4ccccc4)c3n(CC(=O)O)c2n1 [Compound 79, 2-(8-chloro-2-(dimethylamino)-5-oxo-9-phenylbenzo[b][1,8]naphthyridin-10(5H)-yl)acetic acid]
[1]
  IC50: 20 to 100 µM
[2]
  WT_DSF_hSWAT Tm Shift (° C.): D (“D” > 7° C.)
[3]
  Emax: > 50%

## COCCN(c1ccc2c(=O)c3ccc(Cl)c(SC)c3n(CC(=O)O)c2n1)C1CC1 [Compound 28, sodium 2-(8-chloro-2-(cyclopropyl(2-methoxyethyl)amino)-9-(methylthio)-5-oxobenzo[b][1,8]naphthyridin-10(5H)-yl)acetate]
[1]
  IC50: < 20 µM
[2]
  WT_DSF_hSWAT Tm Shift (° C.): D (“D” > 7° C.)
[3]
  Emax: > 50%

## C=Cc1c(Cl)ccc2c(=O)c3ccc(N(C)C)nc3n(CC(=O)O)c12 [Compound 78, 2-(8-chloro-2-(dimethylamino)-5-oxo-9-vinylbenzo[b][1,8]naphthyridin-10(5H)-yl)acetic acid]
[1]
  IC50: 20 to 100 µM
[2]
  WT_DSF_hSWAT Tm Shift (° C.): D (“D” > 7° C.)
[3]
  Emax: > 50%

## CCc1ccc2c(=O)c3ccc(Cl)c(N(C)C)c3n(CC(=O)O)c2n1 [Compound 8]
[1]
  IC50: < 20 µM
[2]
  WT_DSF_hSWAT Tm Shift (° C.): D (“D” > 7° C.)
[3]
  Emax: > 50%

## CN(C)c1c(Cl)ccc2c(=O)c3ccc(Nc4ccccc4)nc3n(CC(=O)O)c12 [Compound 6]
[1]
  IC50: < 20 µM
[2]
  WT_DSF_hSWAT Tm Shift (° C.): D (“D” > 7° C.)
[3]
  Emax: > 50%

## CSc1c(Cl)ccc2c(=O)c3cc(Cl)c(N(C)C)nc3n(CC(=O)O)c12 [Compound 58, sodium 2-(3,8-dichloro-2-(dimethylamino)-9-(methylthio)-5-oxobenzo[b][1,8]naphthyridin-10(5H)-yl)acetate]
[1]
  IC50: < 20 µM
[2]
  WT_DSF_hSWAT Tm Shift (° C.): D (“D” > 7° C.)
[3]
  Emax: > 50%

## CSc1c(Cl)ccc2c(=O)c3ccc(C=C4COC4)nc3n(CC(=O)O)c12 [Compound 65, 2-(8-chloro-9-(methylthio)-2-(oxetan-3-ylidenemethyl)-5-oxobenzo[b][1,8]naphthyridin-10(5H)-yl)acetic acid]
[1]
  IC50: 20 to 100 µM
[2]
  WT_DSF_hSWAT Tm Shift (° C.): D (“D” > 7° C.)
[3]
  Emax: > 50%

## CCOc1c(Cl)ccc2c(=O)c3ccc(N(CCOC)C4CC4)nc3n(CC(=O)O)c12 [Compound 29, sodium 2-(8-chloro-2-(cyclopropyl(2-methoxyethyl)amino)-9-ethoxy-5-oxobenzo[b][1,8]naphthyridin-10(5H)-yl)acetate]
[1]
  IC50: 20 to 100 µM
[2]
  WT_DSF_hSWAT Tm Shift (° C.): D (“D” > 7° C.)
[3]
  Emax: > 50%

## CCc1nc2c(cc1Cl)c(=O)c1ccc(Cl)c(N(C)C)c1n2CC(=O)O [Compound 17, 2-(3,8-dichloro-9-(dimethylamino)-2-ethyl-5-oxobenzo[b][1,8]naphthyridin-10(5H)-yl)acetic acid]
[1]
  IC50: 20 to 100 µM
[2]
  WT_DSF_hSWAT Tm Shift (° C.): C (“C” = 2-7° C.)
[3]
  Emax: > 50%

## CN(C)c1c(Cl)ccc2c(=O)c3ccc(N(C)CCn4ccnc4)nc3n(CC(=O)O)c12 [Compound 80, sodium 2-[8-chloro-9-(dimethylamino)-2-{[2-(imidazole-1-yl)ethyl](methyl)amino}-5-oxobenzo[b]1,8-naphthyridin-10-yl]acetate]
[1]
  IC50: 20 to 100 µM
[2]
  WT_DSF_hSWAT Tm Shift (° C.): D (“D” > 7° C.)
[3]
  Emax: > 50%

## CSc1c(Cl)ccc2c(=O)c3ccc(N(CC4CC4)CC4CC(F)(F)C4)nc3n(CC(=O)O)c12 [Compound 37, sodium 2-(8-chloro-2-((Cyclopropylmethyl)((3,3-difluorocyclobutyl)methyl)amino)-9-(methylthio)-5-oxobenzo[b][1,8]naphthyridin-10(5H)-yl)acetate]
[1]
  IC50: 20 to 100 µM
[2]
  WT_DSF_hSWAT Tm Shift (° C.): D (“D” > 7° C.)
[3]
  Emax: > 50%

## CSc1c(Cl)ccc2c(=O)c3ccc(N(C)C4CC5(CCC5)C4)nc3n(CC(=O)O)c12 [Compound 47, sodium 2-(8-chloro-2-(methyl(spiro[3.3]heptan-2-yl)amino)-9-(methylthio)-5-oxobenzo[b][1,8]naphthyridin-10(5H)-yl)acetate]
[1]
  IC50: < 20 µM
[2]
  WT_DSF_hSWAT Tm Shift (° C.): D (“D” > 7° C.)
[3]
  Emax: > 50%
